Laboratory results published in US20200339691A1, “PROTEINACEOUS MOLECULES AND USES THEREFOR” (priority 2018, published 2020).
Where a SMILES comes first, the peptide text is derived from it. The star is where a group is joined. Myristoyl = CCCCCCCCCCCCCC(=O)*

Legend:
[1] = test system: induced MCF7 cells; assay: FACS CSC inhibition in induced MCF7 cells; type: cell-based, human; conditions: induced MCF7 cells (PMA/TGF-β), 50 μM peptide, 48 hours
Description: (§1) P1 Analogues were synthesized in accordance with the procedure of Example 5. 4×10^4 MDA-MB-231 cells or 1×10^4 induced or non-induced MCF7 cells were seeded in a 12 well plate with 1 mL complete media overnight. Induced MCF7 cells were prepared by stimulating cells with PMA/TGF-β and incubating for 12 hours. Cells were treated with 50 μM test peptide (dissolved in water) for 48 hours. Cells were then washed twice with 1 mL PBS and harvested by trypsinisation. Non-adherent cells were removed during the washing steps. Adherent cells were collected, and were subsequently stained with anti-human CD44, CD24 and Hoechst 33342 antibodies on ice for 30 mins. FACS was performed on BD FACS LSRII to measure the percentage of CD44^hiCD24^lo CSCs by dividing CD44^hiCD24^lo events by total live cell counts (Hoechst negative population) (as described in Fillmore and Kuperwasser (2007) Breast Cancer Res, 9: 303). The percentage of viable cells was calculated by dividing total live cell events by total single cells as described previously (Siemann and Keng (1986), Cancer Res, 46: 3556-3559).

[2] = test system: MDA-MB-231 cells; type: cell-based, human; conditions: for COI (Cell Count) / COI, Live Single Cells (Cell Count) / COI, Single (Cell Count) / Total Cell Count: 50 μM peptide, 48 hours, n = 1; for killing of total MDA-MB-231 cells: not only the CSCs;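 on COI, Live Single Cells (Cell Count): live means Hoechst-negative events among single cells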
From the text: (§2) Non-adherent cells were removed during the washing steps.

[3] = test system: MCF7 cells; conditions: MCF7 cells, 50 μM peptide, 48 hours
Description: as §1

[4] = test system: CD44^hiCD24^lo CSCs in MDA-MB-231 cells; assay: FACS analysis of CD44^hiCD24^lo cancer stem cells in MDA-MB-231 cells treated with P1 analogues; type: cell-based, human; conditions: 50 μM peptide, 48 hours; for CD44^hiCD24^lo CSCs (%) / COI, Live Single CD44^hiCD24^lo CSCs (Cell Count): n = 1; for Average Inhibition of CSCs (%) / CD44^hiCD24^lo CSCs (%) Repeat 1 / CD44^hiCD24^lo CSCs (%) Repeat 2 / CD44^hiCD24^lo CSCs (%) Repeat 3: n = 3
Description: Analogues of P1 (Table 6) were designed and synthesized in accordance with the procedure of Example 5. The ability of these analogues to inhibit cancer stem cells was determined using FACS analysis on MDA-MB-231 cells, which constitutively contain approximately 90% CD44^hiCD24^lo cancer stem cells, treated with the peptides.
as §2

[5] = test system: CD44^hiCD24^lo CSCs in MCF7 cells; assay: FACS analysis of CD44^hiCD24^lo CSCs in MCF7 cells; type: cell-based, human; conditions: 50 μM peptide, 48 hours
Description: as §1

SMILES | CSC inhibition (%) [1] [%] | COI (Cell Count) [2] | COI, Live Single Cells (Cell Count) [2] | COI, Single (Cell Count) [2] | Total Cell Count [2] | killing of total MDA-MB-231 cells [2] | COI Count [3] | COI/Single Cell Count [3] | COI/Single Cells/Live Count [3] | Total Count [3] | Inhibition of CSCs (%) Repeat 1 [4] [%] | Inhibition of CSCs (%) Repeat 2 [4] [%] | Inhibition of CSCs (%) Repeat 3 [4] [%] | CD44^hiCD24^lo CSCs (%) [4] [%] | COI, Live Single CD44^hiCD24^lo CSCs (Cell Count) [4] | Average Inhibition of CSCs (%) [4] [%] | CD44^hiCD24^lo CSCs (%) Repeat 1 [4] [%] | CD44^hiCD24^lo CSCs (%) Repeat 2 [4] [%] | CD44^hiCD24^lo CSCs (%) Repeat 3 [4] [%] | CD44^hiCD24^lo CSC % [5] [%] | further results
CCCCCCCCCCCCCC(=O)N[C@H](C(=O)N[C@@H](Cc1ccccc1)C(=O)N[C@H](C(=O)N[C@@H](Cc1ccccc1)C(=O)N[C@@H](CCCNC(=N)N)C(=O)N[C@@H](CC(C)C)C(=O)N[C@@H](CCCNC(=N)N)C(=O)N[C@@H](CCCCN)C(=O)NCC(=O)N[C@@H](CCCNC(=N)N)C(=O)N[C@@H](CCSC)C(=O)N[C@@H](CCSC)C(=O)N[C@@H](C)C(=O)N[C@H](C(=O)N[C@@H](CCCCN)C(=O)N[C@@H](CCCCN)C(N)=O)C(C)C)[C@@H](C)CC)[C@@H](C)O [Peptide 2815314, Myristoyl-TFIFRLRKGRMMAVKK-NH2] (Myristoyl-TFIFRLRKGRMMAVKK-NH2) | 61.00 | 10 | 2 | 9 | 5611 | killed the majority of the total MDA-MB-231 cells | 6564 | 5443 | 5276 | 10000 | 100.00 | 100.00 | 100.00 | 0.00 | 0 | 100.00 | 0.00 | 0.00 | 0.00 | 2.75 | COI/Single Cells/Live/CD44^hiCD24^lo CSCs Count [5]: 145
CCCCCCCCCCCCCC(=O)N[C@@H](CC(C)C)C(=O)N[C@@H](CCCCN)C(=O)N[C@@H](Cc1ccccc1)C(=O)N[C@H](C(=O)N[C@@H](Cc1ccccc1)C(=O)N[C@@H](CCCNC(=N)N)C(=O)N[C@@H](CC(C)C)C(=O)N[C@@H](CCCNC(=N)N)C(=O)N[C@@H](CCCCN)C(=O)NCC(=O)N[C@@H](CCCNC(=N)N)C(=O)N[C@@H](CCSC)C(=O)N[C@@H](CCSC)C(=O)N[C@@H](CC(=O)O)C(=O)N[C@H](C(=O)N[C@@H](CCCCN)C(=O)N[C@@H](CCCCN)C(N)=O)C(C)C)[C@@H](C)CC [Peptide 2853805, Myristoyl-LKFIFRLRKGRMMDVKK-NH2] (Myristoyl-LKFIFRLRKGRMMDVKK-NH2) | 64.52 | 52 | 1 | 32 | 3221 | killed the majority of the total MDA-MB-231 cells | 5356 | 4637 | 4320 | 10000 | 100.00 | 100.00 | 100.00 | 0.00 | 0 | 100.00 | 0.00 | 0.00 | 0.00 | 2.50 | COI/Single Cells/Live/CD44^hiCD24^lo CSCs Count [5]: 108
CCCCCCCCCCCCCC(=O)N[C@H](C(=O)N[C@@H](Cc1ccccc1)C(=O)N[C@H](C(=O)N[C@@H](Cc1ccccc1)C(=O)N[C@@H](CCCNC(=N)N)C(=O)N[C@@H](CC(C)C)C(=O)N[C@@H](CCCNC(=N)N)C(=O)N[C@@H](CCCCN)C(=O)NCC(=O)N[C@@H](CCCNC(=N)N)C(=O)N[C@@H](C)C(=O)N[C@@H](CCSC)C(=O)N[C@@H](CC(=O)O)C(=O)N[C@H](C(=O)N[C@@H](CCCCN)C(=O)N[C@@H](CCCCN)C(N)=O)C(C)C)[C@@H](C)CC)[C@@H](C)O [Peptide 2815312, Myristoyl-TFIFRLRKGRAMDVKK-NH2] (Myristoyl-TFIFRLRKGRAMDVKK-NH2) | 53.47 | 9 | 6 | 7 | 2993 | killed the majority of the total MDA-MB-231 cells | 5333 | 4517 | 4331 | 10000 | 100.00 | 100.00 | 100.00 | 0.00 | 0 | 100.00 | 0.00 | 0.00 | 0.00 | 3.28 | COI/Single Cells/Live/CD44^hiCD24^lo CSCs Count [5]: 142
